Test results reported in patent US6693112B2, “Compounds for enhancing chemotherapy” (The Pennsylvania State University, priority 2000, dated 2004).
Where “and” joins values, the source holds several entries; their conditions need not be identical. Equal values may be shown once. Read-outs that look alike come from different tables or passages of the source.

Columns and labels:
MCF-7 cells = assay: Cytotoxicity toward drug-sensitive MCF-7 cells (sulforhodamine B binding assay); type: cell-based, human; conditions: for Toxicity: percent of MCF-7 cells killed by 10 μ/ml of the compound
P-gp = P-gp (Homo sapiens, UniProt P08183); conditions: for P-gp antagonism score / Pgp Antagonism: % survival with compound alone / with compound + 50 nM vinblastine; for P-gp antagonism score: >1.0 = chemosensitization; for p-GP/MRP1: ratio of P-gp and MRP1 antagonism scores
Chain of P-gp (P08183 whole entry): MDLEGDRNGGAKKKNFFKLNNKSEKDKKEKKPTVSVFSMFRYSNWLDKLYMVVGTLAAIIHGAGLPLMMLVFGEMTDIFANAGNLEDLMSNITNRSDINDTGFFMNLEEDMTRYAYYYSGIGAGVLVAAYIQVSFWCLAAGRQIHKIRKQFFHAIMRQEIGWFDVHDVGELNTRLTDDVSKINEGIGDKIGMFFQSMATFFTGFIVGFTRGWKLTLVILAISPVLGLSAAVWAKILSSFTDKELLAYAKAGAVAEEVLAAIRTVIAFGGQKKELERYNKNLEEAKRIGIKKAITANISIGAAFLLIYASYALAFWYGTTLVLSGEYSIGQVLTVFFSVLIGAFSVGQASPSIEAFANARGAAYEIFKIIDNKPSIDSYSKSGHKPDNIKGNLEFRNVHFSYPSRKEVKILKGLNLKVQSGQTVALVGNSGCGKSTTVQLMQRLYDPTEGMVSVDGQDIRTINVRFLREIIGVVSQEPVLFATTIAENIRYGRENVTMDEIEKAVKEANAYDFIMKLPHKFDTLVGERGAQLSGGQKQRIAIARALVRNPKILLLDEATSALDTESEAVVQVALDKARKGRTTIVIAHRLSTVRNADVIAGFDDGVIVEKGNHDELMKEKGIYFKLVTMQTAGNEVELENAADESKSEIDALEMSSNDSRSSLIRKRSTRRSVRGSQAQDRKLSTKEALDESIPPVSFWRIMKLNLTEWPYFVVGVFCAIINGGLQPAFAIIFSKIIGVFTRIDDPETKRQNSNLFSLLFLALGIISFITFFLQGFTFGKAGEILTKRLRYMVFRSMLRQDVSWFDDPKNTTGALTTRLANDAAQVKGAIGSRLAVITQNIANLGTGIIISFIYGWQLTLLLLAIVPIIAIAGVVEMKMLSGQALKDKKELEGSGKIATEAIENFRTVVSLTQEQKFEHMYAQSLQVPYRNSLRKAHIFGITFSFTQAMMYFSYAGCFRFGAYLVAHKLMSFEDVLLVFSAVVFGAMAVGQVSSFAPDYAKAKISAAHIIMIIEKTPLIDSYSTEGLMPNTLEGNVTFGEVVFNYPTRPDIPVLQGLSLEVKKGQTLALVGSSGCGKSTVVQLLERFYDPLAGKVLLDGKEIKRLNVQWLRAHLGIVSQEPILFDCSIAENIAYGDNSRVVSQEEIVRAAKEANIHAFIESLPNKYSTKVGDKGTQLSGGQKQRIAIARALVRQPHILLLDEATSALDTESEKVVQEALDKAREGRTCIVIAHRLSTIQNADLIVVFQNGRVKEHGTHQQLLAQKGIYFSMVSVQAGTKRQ
Procedure: The percentage of cells that died following treatment was calculated as a percent decrease in sulforhodamine B binding as compared with control cultures. […] Inhibition of P-gp was manifested as the ability of the compound to enhance the cytotoxicity of vinblastine toward NCI/ADR cells. To assess the toxicity of the compounds toward drug-sensitive cells, the effects of the compounds on the growth of drug-sensitive MCF-7 cells were determined using the same methods.
The P-gp antagonism score was calculated by dividing the percent survival of NCI/ADR cells treated with the compound alone by the percent survival of NCI/ADR cells treated with the compound in the presence of 50 nM vinblastine. Chemosensitization is indicated by a score of more than 1.0.
The P-gp antagonism score was calculated by dividing the percent survival of NCI/ADR cells treated with […] by the percent survival of NCI/ADR cells treated with the compound in the presence of 50 nM vinblastine.

MRP = biological target: T1, MRP (Homo sapiens, UniProt P33527); assay: Reversal of MRP-mediated MDR: enhancement of vincristine cytotoxicity toward MCF-7/VP cells; type: cell-based; conditions: % survival with compound alone / with compound + 1 nM vincristine; for MRP1 antagonism score: >1.0 = chemosensitization
T1 construct: MCF-7/VP cells, a cell line that expresses MRP; endogenous in cells; host or cells: MCF-7/VP cells
T1 sequence (P33527 whole entry): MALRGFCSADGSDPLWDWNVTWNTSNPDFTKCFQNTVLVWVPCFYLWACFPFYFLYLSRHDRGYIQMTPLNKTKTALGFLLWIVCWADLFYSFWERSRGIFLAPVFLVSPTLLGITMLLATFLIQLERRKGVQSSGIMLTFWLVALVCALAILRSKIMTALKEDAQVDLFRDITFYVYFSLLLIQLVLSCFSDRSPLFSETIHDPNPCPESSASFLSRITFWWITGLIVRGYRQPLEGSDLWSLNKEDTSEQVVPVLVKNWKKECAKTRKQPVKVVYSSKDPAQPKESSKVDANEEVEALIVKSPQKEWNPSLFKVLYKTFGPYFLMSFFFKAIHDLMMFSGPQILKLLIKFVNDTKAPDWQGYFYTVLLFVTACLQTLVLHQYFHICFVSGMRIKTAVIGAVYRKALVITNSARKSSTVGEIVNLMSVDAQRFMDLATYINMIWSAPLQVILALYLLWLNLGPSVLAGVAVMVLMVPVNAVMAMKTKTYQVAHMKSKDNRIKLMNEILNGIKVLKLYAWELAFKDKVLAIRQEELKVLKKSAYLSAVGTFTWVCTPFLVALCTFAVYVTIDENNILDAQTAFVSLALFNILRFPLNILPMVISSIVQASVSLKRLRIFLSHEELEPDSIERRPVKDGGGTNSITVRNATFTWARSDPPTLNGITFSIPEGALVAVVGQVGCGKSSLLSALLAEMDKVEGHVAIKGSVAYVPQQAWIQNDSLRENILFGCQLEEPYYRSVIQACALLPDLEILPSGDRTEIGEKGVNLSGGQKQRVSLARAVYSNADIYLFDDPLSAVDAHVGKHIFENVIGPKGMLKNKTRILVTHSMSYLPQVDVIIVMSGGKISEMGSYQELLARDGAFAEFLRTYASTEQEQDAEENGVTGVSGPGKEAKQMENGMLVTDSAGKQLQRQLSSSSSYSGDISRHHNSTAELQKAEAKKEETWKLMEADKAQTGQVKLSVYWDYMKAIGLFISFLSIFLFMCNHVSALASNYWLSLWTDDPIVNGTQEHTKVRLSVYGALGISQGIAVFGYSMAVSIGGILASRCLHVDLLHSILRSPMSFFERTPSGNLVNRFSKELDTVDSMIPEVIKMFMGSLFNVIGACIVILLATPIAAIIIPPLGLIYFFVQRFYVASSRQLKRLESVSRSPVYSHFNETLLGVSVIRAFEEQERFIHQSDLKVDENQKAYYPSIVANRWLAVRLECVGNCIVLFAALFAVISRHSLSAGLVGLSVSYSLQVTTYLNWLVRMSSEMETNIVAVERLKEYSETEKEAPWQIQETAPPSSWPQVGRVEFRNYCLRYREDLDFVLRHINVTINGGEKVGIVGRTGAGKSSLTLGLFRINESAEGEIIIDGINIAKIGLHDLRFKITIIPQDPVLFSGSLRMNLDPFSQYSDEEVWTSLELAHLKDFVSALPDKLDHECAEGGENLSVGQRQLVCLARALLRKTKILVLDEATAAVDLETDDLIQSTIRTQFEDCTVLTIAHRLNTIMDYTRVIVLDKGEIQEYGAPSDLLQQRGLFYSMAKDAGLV
Procedure: Reversal of MRP-mediated MDR was examined by plating MCF-7/VP cells as described above and exposing the cells to varying concentrations of phenoxymethylquinoxalinone compounds in the absence or presence of 1 nM vincristine for 48 hours. Cell survival was assayed as described above. The percentage of cells that died following treatment was calculated as described above. Inhibition of MRP was manifested as the ability of the compound to enhance the cytotoxicity of vincristine toward MCF-7/VP cells.
Chemosensitization is indicated by a score greater than 1.0.
Chemosensitization is indicated by a score greater than 1.0. […]

[1] = MCF-7 cells, 48 hours, concentration required to kill 50% of the cells, * = maximum dose tested (low solubility)
[2] = MCF-7 cells, concentration required to kill 50% of the cells
[3] = concentration of compound at the maximum antagonism

SMILES | MRP1 antagonism score (MRP) | Toxicity (MCF-7 cells) | Pgp Antagonism (P-gp; NCI/ADR cells) | MRP Antagonism (MRP) | further results
Cn1c(=O)c(COc2ccccc2Cc2ccccc2)nc2ccccc21 [Compound 15] | 1.1 |  |  |  | IC50 (MCF-7 cells; [1]): 8.1 µM; P-gp antagonism score (P-gp; NCI/ADR cells): 1.0; p-GP/MRP1 (P-gp): 0.9
Cn1c(=O)c(COc2c(F)c(F)c(F)c(F)c2F)nc2ccccc21 [Compound 4] | 0.8 |  |  |  | IC50 (MCF-7 cells; [1]): > 70 µM; P-gp antagonism score (P-gp; NCI/ADR cells): 2.1; p-GP/MRP1 (P-gp): 2.6
COc1cc(CNc2c3c(nc4ccccc24)N(Cc2ccccc2)CC3)cc(OC)c1 [Compound 4005] |  |  |  |  | Toxicity IC50 (MCF-7 cells; [2]): 20 µg/mL; Maximum Antagonism (conc. μg/ml) (P-gp; [3]): 25 µg/mL
Cc1cc(OCc2nc3ccccc3n(C)c2=O)ccc1[N+](=O)[O-] [Compound 9] | 1.1 |  |  |  | IC50 (MCF-7 cells; [1]): > 77 µM; P-gp antagonism score (P-gp; NCI/ADR cells): 1.6; p-GP/MRP1 (P-gp): 1.4
CC(C)NCC(=O)Nc1c2c(nc3ccccc13)N(Cc1ccccc1)CC2 [Compound 59] |  | 45% | 13.0 | 0.99 | 
Fc1cccc(CNc2c3c(nc4ccccc24)N(Cc2ccccc2)CC3)c1 [Compound 4003] |  |  |  |  | Toxicity IC50 (MCF-7 cells; [2]): >25 µg/mL; Maximum Antagonism (conc. μg/ml) (P-gp; [3]): 25 µg/mL
CC(C)(C)NCC(=O)Nc1c2c(nc3ccccc13)N(Cc1ccccc1)CC2 [Compound 60] |  | 29% |  |  | 
Nc1c2c(nc3ccccc13)N(c1ccccc1)CC2 [Compound 51] |  | 52% | 2.7 | 1.1 | 
CN1CCc2c1nc1ccccc1c2N=C(c1ccccc1)N1CCCCC1 [Compound 47] |  | 58% | 2.4 | 1.0 | 
CN1CCc2c1nc1ccccc1c2NC(=O)CCc1cc(C(C)(C)C)c(O)c(C(C)(C)C)c1 [Compound 46] |  | 99% | 1.0 | 1.0 | 
CN1CCc2c1nc1cc(Br)ccc1c2N [Compound 36] |  | 99% and 94% | 1.3 | 1.6 | 
CN1CCc2c1nc1ccccc1c2NC(=O)CNC(C)(C)C [Compound 40] |  | 28% | 3.2 | 1.2 | 
O=C(CN1CCCCC1)Nc1c2c(nc3ccccc13)N(Cc1ccccc1)CC2 [Compound 62] |  | 0% | 17.8 | 1.1 and 1.09 | 
Nc1c2c(nc3ccccc13)N(Cc1ccccc1)CC2 [Compound 4001] |  |  |  |  | Toxicity IC50 (MCF-7 cells; [2]): 1.7 µg/mL; Antagonism at IC20 or less, P-gp (P-gp): 1.0; Maximum Antagonism (P-gp): 4.0 (3.1); Maximum Antagonism (conc. μg/ml) (P-gp): 4.0 (3.1) μg/ml
Cn1c(=O)c(COc2ccccc2)nc2ccccc21 [Compound 1, 1-Methyl-3-phenoxymethyl-1H-quinoxalin-2-one] | 1.0 |  |  |  | IC50 (MCF-7 cells; Homo sapiens, MCF7, 48 h): > 94 µM
Cn1c(=O)c(COc2ccc(C#N)cc2)nc2ccccc21 [Compound 3, 3-(4-Cyano-phenoxymethyl)-1-methyl-1H-quinoxalin-2-one] | 0.8 |  |  |  | IC50 (MCF-7 cells; Homo sapiens, MCF7, 48 h): > 43 µM
CCN(CC)CC(=O)Nc1c2c(nc3ccccc13)N(Cc1ccccc1)CC2 [Compound 61] |  | 14% | 14.8 | 0.98 | 
O=C(Nc1c2c(nc3ccccc13)N(Cc1ccccc1)CC2)c1c(F)cccc1C(F)(F)F [Compound 4009] |  |  |  |  | Toxicity IC50 (MCF-7 cells; [2]): 6 µg/mL; Maximum Antagonism (conc. μg/ml) (P-gp; [3]): 3.1 µg/mL
CCN(CC)CC(=O)Nc1c2c(nc3ccccc13)N(C)CC2 [Compound 41] |  | 30% | 6.0 | 1.2 | 

SMILES | MRP1 antagonism score (MRP) | Toxicity (MCF-7 cells) | Pgp Antagonism (P-gp; NCI/ADR cells) | MRP Antagonism (MRP) | further results
Cn1c(=O)c(COc2cccnc2)nc2ccccc21 [Compound 16] | 1.1 |  |  |  | IC50 (MCF-7 cells; [1]): > 56 µM; P-gp antagonism score (P-gp; NCI/ADR cells): 1.0; p-GP/MRP1 (P-gp): 0.9
Cn1c(=O)c(COc2cccc(Nc3ccccc3)c2)nc2ccccc21 [Compound 14] | 0.9 |  |  |  | IC50 (MCF-7 cells; [1]): 25 µM; P-gp antagonism score (P-gp; NCI/ADR cells): 1.3; p-GP/MRP1 (P-gp): 1.5
CN(C)c1cccc(OCc2nc3ccccc3n(C)c2=O)c1 [Compound 12] | 0.9 |  |  |  | IC50 (MCF-7 cells; [1]): 57 µM; P-gp antagonism score (P-gp; NCI/ADR cells): 1.1; p-GP/MRP1 (P-gp): 1.1
CN1CCc2c1nc1ccccc1c2NC(=O)Cc1ccccc1 [Compound 38] |  |  |  | 1.0 | 
CCC(=O)Nc1c2c(nc3ccccc13)N(C)CC2 [Compound 37] |  |  | 1.6 | 1.0 | 
O=C(Nc1c2c(nc3ccccc13)N(Cc1cccc(Cl)c1)CC2)C12CC3CC(CC(C3)C1)C2 [Compound 52] |  | 33% | 1.2 | 1.2 | 
COc1cc(OC)cc(OCc2nc3ccccc3n(C)c2=O)c1 [Compound 21] | 0.9 |  |  |  | IC50 (MCF-7 cells; [1]): 25 µM
CN1CCc2c1nc1ccccc1c2NC(=O)CN1CCCCC1 [Compound 42] |  | 51% | 4.1 | 1.2 | 
O=C(CN1CCCCC1)Nc1c2c(nc3ccccc13)N(Cc1ccccc1)CC2 [Compound 4007] |  |  |  |  | Toxicity IC50 (MCF-7 cells; [2]): 6 µg/mL; potency of P-gp antagonism compared with verapamil (P-gp; FIG. 7, NCI/ADR cells, 50 nM vinblastine): somewhat more potent than verapamil; Maximum Antagonism (conc. μg/ml) (P-gp; [3]): 3.1 µg/mL
Cn1c(=O)c(COc2ccc(F)cc2)nc2ccccc21 [Compound 2] | 0.8 |  |  |  | IC50 (MCF-7 cells; [1]): 26 µM
O=C(Nc1c2c(nc3ccccc13)N(Cc1ccccc1)CC2)c1ccc(F)c(C(F)(F)F)c1 [Compound 4010] |  |  |  |  | Toxicity IC50 (MCF-7 cells; [2]): 9 µg/mL; Maximum Antagonism (conc. μg/ml) (P-gp; [3]): 3.1 µg/mL
CN1CCc2c1nc1ccccc1c2NC(=O)CNCCc1ccc(O)cc1 [Compound 44] |  | 21% | 1.7 | 1.4 | 
CCOC(=O)c1ccc(OCc2nc3ccccc3n(C)c2=O)cc1 [Compound 13, 4-(4-Methyl-3-oxo-3,4-dihydro-quinoxalin-2-ylmethoxy)-benzoyl ethyl ester] | 0.9 |  |  |  | IC50 (MCF-7 cells; [1]): > 74 µM; P-gp antagonism score (P-gp; NCI/ADR cells): 3.8; p-GP/MRP1 (P-gp): 4.2
Cn1c(=O)c(COc2ccc(C(=O)c3ccccc3)cc2)nc2ccccc21 [Compound 8, 3-(4-Benzoyl-phenoxymethyl)-1-methyl-1H-quinoxalin-2-one] | 0.9 |  |  |  | IC50 (MCF-7 cells; Homo sapiens, MCF7, 48 h): > 67 µM
Cn1c(=O)c(COc2ccc(-c3ccccc3)cc2)nc2ccccc21 [Compound 17] | 0.7 |  |  |  | IC50 (MCF-7 cells; [1]): 30 µM
Nc1c2c(nc3ccccc13)N(C1CCCCC1)CC2 [Compound 49] |  | 97% | 0.8 | 0.6 | 
COc1ccc(OCc2nc3ccccc3n(C)c2=O)cc1OC [Compound 22] | 0.9 |  |  |  | IC50 (MCF-7 cells; [1]): 28 µM
CN1CCN(CC(=O)Nc2c3c(nc4ccccc24)N(Cc2ccccc2)CC3)CC1 [Compound 63] |  | 21% | 7.5 | 1.07 | 
Cn1c(=O)c(COc2ccccc2C(=O)Nc2ccccc2)nc2ccccc21 [Compound 11, 2-(4-Methyl-3-oxo-3,4-dihydroquinoxalin-2-yl-methoxy)-N-phenylbenzamide] | 1.0 |  |  |  | IC50 (MCF-7 cells; Homo sapiens, MCF7, 48 h): > 32 µM
